Laboratory results as given in paper PMC7753357, “Population Pharmacokinetics and Model-Based Dosing Optimization of Teicoplanin in Pediatric Patients” (Frontiers in Pharmacology, 2020).
Values joined by “and” are separate entries in the source; they are usually repeats but may differ in a detail not shown here. Equal values may be shown once. Read-outs that look alike come from different tables or passages of the source.

Tests used:
[1] = Population pharmacokinetic analysis (NONMEM, one-compartment model) in hospitalized children; format: in vivo, human
Source text: This was a retrospective PK study performed in two hospitals in China according to the principles of the current Declaration of Helsinki and Good Clinical Practice (Hospital 1: the First Affiliated Hospital of Xi’an Jiaotong University; Hospital 2: the Affiliated Children Hospital of Xi’an Jiaotong University). The protocol was approved by the institutional review board of each study site (No.XJTU1AF2017LSK-28). All patients aged 1 month to 18 years old receiving teicoplanin (Targocid, Sanofi-Aventis) for proven or suspected MRSA infection were selected for the study over 33-month period (March 2017 and November 2019). Children were excluded if a complete teicoplanin dosing history or precise sampling time was not available. The demographic variables with potential impact on the PK of teicoplanin and details of teicoplanin administration (dose and infusion start and stop times) were extracted from medical records retrospectively by a trained research assistant. If serum creatinine (SCr) readings were unavailable around the teicoplanin dosing (±48 h), the closest available SCr reading would be imputed. Creatinine clearance (CLcr) was estimated by Cockcroft formula: CLcr = (140 – age (years)) ×weight (WT, kg) × 0.85 (if female)/0.818 × SCr (μmol/L), instead of Schwartz formula due to the lack of height data in most children ([Cockcroft and Gault, 1976]).
(§1) Teicoplanin was administered at three loading doses of 10 mg/kg every 12 h, followed by 6–10 mg/kg/day. Types of blood samples included therapeutic drug monitoring (TDM) sample, and opportunistic sample. TDM was typically performed within 30 min preceding a dose at steady state. Samples were centrifuged for 10 min. Serum was separated and stored at −80°C until analysis. The laboratory staff were allowed to identify the opportunistic samples with the timings of blood taking documented and store them at −80°C after routine testing and pretreatment. Teicoplanin concentrations were determined with a validated high performance liquid chromatography method. The calibration curve ranged from 2.5 to 100 mg/L, and lower limit of […] (LLOQ) of this assay was 2.5 mg/L. Intra- and inter-day precision values were 3.5 and 6.2%, respectively ([Wang et al., 2015]). For the samples below the LLOQ, concentration values were recorded as LLOQ of 2.5 mg/L.
Population pharmacokinetic (PPK) analysis was performed using NONMEM (version 7.2). A one-compartment PK model with first-order elimination (ADVAN1 TRANS2) was implemented. The concentration-time data for teicoplanin were modeled by first-order conditional estimation with interaction (FOCE-I). We evaluated inter-individual variability using an exponential error model. Residual variability was selected from additive, proportional, exponential, and combined additive and proportional error models according to acceptable standard errors, physiological plausibility of population clearance (CL) and distribution volume (Vd) estimates, improvement of the objective function value (OFV) and good visual representation of standard diagnostic plots. Demographic characteristics (age, gender, WT), renal functions (blood urea nitrogen, SCr, CLcr), biochemical data (total protein, albumin), status of disease (sepsis, endocarditis), and nephrotoxic medications received during teicoplanin therapy were investigated as potential variables on PK parameters. CLcr was calculated by the Cockcroft formula ([Cockcroft and Gault, 1976]). […]

[2] = Serum teicoplanin concentrations (TDM and opportunistic samples, HPLC); format: in vivo, human; conditions: SD
Protocol: as §1

[3] = Nephrotoxicity and adverse events in patients; format: in vivo, human; conditions: all after the last sample was collected
[4] = cited from earlier work
Source text: Supplement table1.docx, table 1: TABLE S1 Pharmacokinetic Study of teicoplanin in pediatric patients. | column: Clearance (CL) , L/h; Volume of distribution (Vd) , L || Teicoplanin is a glycopeptide antibiotic with activity against methicillin-resistant Staphylococcus aureus (MRSA) ([Traina and Bonati, 1984]). […] Teicoplanin trough concentration (C min) is closely associated with clinical efficacy. […] Due to widespread systemic inflammation, patients may often have an ARC in PICU patients ([Van Der Heggen et al., 2019]), and increased volume ... || (+ 2 further places)

[5] = cited from earlier work; remark: listed apart in the source
Source text: Teicoplanin is a glycopeptide antibiotic with activity against methicillin-resistant Staphylococcus aureus (MRSA) ([Traina and Bonati, 1984]). […] Teicoplanin trough concentration (C min) is closely associated with clinical efficacy. For the moderate (such as respiratory tract infections, urinary tract infections and skin and soft-tissue infections) and severe infection (such as sepsis, infective endocarditis, bone an ... || There are large differences in the optimal dosage regimens provided by the two methods (Table 3). Taken together, optimal dosage regimens based on the C min targets in our study are recommended, which are three loading doses of 10 mg/kg every 12 h, followed by a maintenance dose of 12 mg/kg/day for C min of > 10 mg/L and three loading doses of 13 mg/kg every 12 h, followed by a maintenance dose of 16 mg/kg/day for C min of > 15 mg/L. The reasons are as follows: 1) The maintenance dose based on the C min targets are higher than that based PK/PD targets. In other words, maintenance dose based on ...

[6] = ref Lukas et al., 2004; cited from earlier work
Source text: (§2) Teicoplanin is a glycopeptide antibiotic with activity against methicillin-resistant Staphylococcus aureus (MRSA) ([Traina and Bonati, 1984]). […] Teicoplanin trough concentration (C min) is closely associated with clinical efficacy. For the moderate (such as respiratory tract infections, urinary tract infections and skin and soft-tissue infections) and severe infection (such as sepsis, infective endocarditis, bone an ...

albumin = conditions: ref Lukas et al., 2004; cited from earlier work
Source text: as §2

[7] = ref Svetitsky et al., 2009; cited from earlier work
Protocol: There are large differences in the optimal dosage regimens provided by the two methods (Table 3). Taken together, optimal dosage regimens based on the C min targets in our study are recommended, which are three loading doses of 10 mg/kg every 12 h, followed by a maintenance dose of 12 mg/kg/day for C min of > 10 mg/L and three loading doses of 13 mg/kg every 12 h, followed by a maintenance dose of 16 mg/kg/day for C min of > 15 mg/L. The reasons are as follows: 1) The maintenance dose based on the C min targets are higher than that based PK/PD targets. In other words, maintenance dose based on ...

[8] = most recent study in Chinese children, ref Gao et al., 2020

Teicoplanin
Vd, mean of 1,000 bootstrap replicates ([1]; bootstrap): 1.77 L | CL, mean of 1,000 bootstrap replicates ([1]; bootstrap success rate 96.5%): 0.0718 L/h | Vd, final model estimate ([1]; population PK, one-compartment, Vd=1.39×θ3(WT/16.71)): 1.39 L | Estimate of Vd per kg ([1]; this study): 0.15 L/kg | Typical population value of CL per kg ([1]; this study): 0.233 mL/min/kg | Teicoplanin concentration, mean ± standard deviation ([2]; Hospital 1, n=13, 21 samplings): 9.3 ± 10.1 mg/L | Teicoplanin concentration, mean ± standard deviation ([2]; Hospital 2, n=212, 304 samplings): 9.1 ± 8.9 mg/L | Teicoplanin concentration, mean ± standard deviation ([2]; model evaluation data, n = 66, 89 samplings): 9.6 ± 5.6 mg/L | Teicoplanin concentration, mean ± standard deviation ([2]; model-building data, n = 159, 236 samplings, HPLC, LLOQ 2.5 mg/L): 8.6 ± 12.1 mg/L | Children who developed nephrotoxicity during hospitalization [3]: Nine | Mean C min ([4]; 24 h after the first dose, ref Sanchez et al., 1999): 4800 ng/mL | Mean C min ([4]; 72 h after the first dose, ref Sanchez et al., 1999): 5700 ng/mL | Mean C min ([4]; 168 h after the first dose, ref Sanchez et al., 1999): 5900 ng/mL | CL ([4]; PICU Caucasians, ref Aarons et al., 1998, Lukas et al., 2004, Ramos-Martin et al., 2014, Reed et al., 1997, Sanchez et al., 1999, Terragna et al., 1988, Zhao et al., 2015): 0.5 to 1.23 mL/min/kg | Volume of distribution (Vd) ([4]; children, n=39, England, FPIA, ref Ramos-Martin (2014)): 4.138 L | Q ([4]; children, n=136, China, population PK, ref Gao (2020)): 0.23 L/h | Vd in other studies ([4]; children, ref Supplementary Table S1): 0.2 to 1.02 L/kg | CL estimate [4, 8]: 0.217 mL/min/kg | Vd [4, 8]: 1.85 L/kg | CL ([4]; non-PICU Caucasians, ref Aarons et al., 1998, Lukas et al., 2004, Ramos-Martin et al., 2014, Reed et al., 1997, Sanchez et al., 1999, Terragna et al., 1988, Zhao et al., 2015): 0.25 to 0.4 mL/min/kg | Proportion of children failing to achieve the target C min ([4]; previous clinical studies, ref Sanchez et al., 1999, Strenger et al., 2013, Zhao et al., 2015): 48–89% | CL in children ([4]; ref Aarons et al., 1998, Lukas et al., 2004, Ramos-Martin et al., 2014, Reed et al., 1997, Sanchez et al., 1999, Terragna et al., 1988, Zhao et al., 2015): 0.25 to 1.23 mL/min/kg | Overall mean C min ([4]; ref Lukas et al., 2004): 9000 ng/mL | Vd ([4]; ref Ramos-Martin et al., 2014): 0.2 L/kg | C min achieved with current maintenance doses in another study ([4]; ref Sanchez et al., 1999): 4800 to 5900 ng/mL | CL ([4]; two studies in patients admitted to the PICU, ref Reed et al., 1997, Sanchez et al., 1999): 0.75 mL/min/kg and 0.5 mL/min/kg | Elimination half-life compared with vancomycin ([5]; ref Kasai et al., 2018): longer elimination half-life than vancomycin | Linearity of PK ([5]; ref Rowland, 1990): linear PK | CL in adults ([5]; seven out of ten of the CL reported, ref Byrne et al., 2018, Cazaubon et al., 2017, Kasai et al., Lamont et al., 2005, Soy et al., 2006, Yamada et al., 2012, Yu et al., 1995): lower than 0.01 L/h/kg | Hydrophilicity of the marketed drug [6]: hydrophilic | Bound to albumin in plasma (albumin): > 90% | Adverse events compared with vancomycin [7]: lower adverse event compared with vancomycin
